The values that follow come from ChEMBL document CHEMBL1201862, “PubChem BioAssay data set” (2004).

Active and inactive are the calls of the source. Bounds are passed on as bounds.

One assay deals with T1, Insulin-degrading enzyme (Homo sapiens, UniProt P14735).
T1 sequence (P14735 whole entry): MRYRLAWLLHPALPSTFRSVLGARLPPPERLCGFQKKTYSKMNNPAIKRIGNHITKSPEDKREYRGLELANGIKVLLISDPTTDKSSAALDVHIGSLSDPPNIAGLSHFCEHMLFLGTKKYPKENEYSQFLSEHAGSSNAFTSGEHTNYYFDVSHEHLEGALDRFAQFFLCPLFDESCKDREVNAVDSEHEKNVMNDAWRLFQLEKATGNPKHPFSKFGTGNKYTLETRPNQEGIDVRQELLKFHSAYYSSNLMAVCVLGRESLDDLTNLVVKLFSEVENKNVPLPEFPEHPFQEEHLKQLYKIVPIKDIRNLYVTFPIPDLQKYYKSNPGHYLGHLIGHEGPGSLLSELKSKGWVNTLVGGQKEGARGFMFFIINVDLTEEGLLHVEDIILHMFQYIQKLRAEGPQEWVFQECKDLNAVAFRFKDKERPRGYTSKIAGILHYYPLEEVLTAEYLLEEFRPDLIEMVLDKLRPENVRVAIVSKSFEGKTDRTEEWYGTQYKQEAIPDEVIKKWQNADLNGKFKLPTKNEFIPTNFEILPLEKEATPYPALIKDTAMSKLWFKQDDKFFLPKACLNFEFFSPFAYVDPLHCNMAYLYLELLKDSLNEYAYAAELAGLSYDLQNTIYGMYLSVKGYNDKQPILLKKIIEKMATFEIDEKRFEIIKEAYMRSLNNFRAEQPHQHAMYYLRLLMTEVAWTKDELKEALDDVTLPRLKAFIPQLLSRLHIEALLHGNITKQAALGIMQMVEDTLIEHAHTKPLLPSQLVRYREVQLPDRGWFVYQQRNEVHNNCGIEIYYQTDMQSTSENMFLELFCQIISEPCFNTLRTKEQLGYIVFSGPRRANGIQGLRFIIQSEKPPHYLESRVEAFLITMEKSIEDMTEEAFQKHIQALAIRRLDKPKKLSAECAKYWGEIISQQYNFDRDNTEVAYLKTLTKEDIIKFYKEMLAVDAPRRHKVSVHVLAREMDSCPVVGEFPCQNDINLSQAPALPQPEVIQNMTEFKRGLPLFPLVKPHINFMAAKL
As to the kind of experiment: activators of recombinant IDE enzyme, dose response, counter-screen for IDE activator project, biochemical, fluorescence polarization (AID 588681). In general terms: Counterscreens check selectivity or assay interference.

Assay [1] concerns the target T2, SUMO-activating enzyme (Homo sapiens, UniProt Q9UBT2). The assay can be described thus: inhibitors of in vitro SUMOylation cascade, primary screen, biochemical, HTRF, uHTS (AID 2006). It counts as protein-complex assay. (Time-resolved FRET reads energy transfer from a long-lived donor to a nearby acceptor.)
Assay [2] concerns the target T2, SUMO-activating enzyme. The assay can be described thus: SUMOylation inhibitor hit validation, confirmation, SUMOylation inhibitor project, biochemical, AlphaScreen (AID 2018). It counts as functional. (In general: Alpha assays give light when donor and acceptor beads are brought close together.)
The target in assay [3] is Platelet-derived growth factor receptor beta (Homo sapiens, UniProt P09619). It counts as functional.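 Note: value comes from a kinome panel, with PDGFRB tested as one panel member.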
Assay [4] deals with Hepatocyte growth factor receptor (Homo sapiens, UniProt P08581). In kind it is functional.
The target of assay [5] is Cyclin-dependent kinase 5 (Homo sapiens, UniProt Q00535). It counts as functional.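 Note: CDK5 measured as one member of a kinase profiling panel.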
Assay [6] addresses Cyclin-dependent kinase 2 (Homo sapiens, UniProt P24941). It counts as functional.
Assay [7] addresses Serine/threonine-protein kinase 17A (Homo sapiens, UniProt Q9UEE5). In kind it is functional.
The target of a further assay is T3, Hexokinase-1 (Homo sapiens, UniProt P19367).
T3 sequence (P19367 whole entry): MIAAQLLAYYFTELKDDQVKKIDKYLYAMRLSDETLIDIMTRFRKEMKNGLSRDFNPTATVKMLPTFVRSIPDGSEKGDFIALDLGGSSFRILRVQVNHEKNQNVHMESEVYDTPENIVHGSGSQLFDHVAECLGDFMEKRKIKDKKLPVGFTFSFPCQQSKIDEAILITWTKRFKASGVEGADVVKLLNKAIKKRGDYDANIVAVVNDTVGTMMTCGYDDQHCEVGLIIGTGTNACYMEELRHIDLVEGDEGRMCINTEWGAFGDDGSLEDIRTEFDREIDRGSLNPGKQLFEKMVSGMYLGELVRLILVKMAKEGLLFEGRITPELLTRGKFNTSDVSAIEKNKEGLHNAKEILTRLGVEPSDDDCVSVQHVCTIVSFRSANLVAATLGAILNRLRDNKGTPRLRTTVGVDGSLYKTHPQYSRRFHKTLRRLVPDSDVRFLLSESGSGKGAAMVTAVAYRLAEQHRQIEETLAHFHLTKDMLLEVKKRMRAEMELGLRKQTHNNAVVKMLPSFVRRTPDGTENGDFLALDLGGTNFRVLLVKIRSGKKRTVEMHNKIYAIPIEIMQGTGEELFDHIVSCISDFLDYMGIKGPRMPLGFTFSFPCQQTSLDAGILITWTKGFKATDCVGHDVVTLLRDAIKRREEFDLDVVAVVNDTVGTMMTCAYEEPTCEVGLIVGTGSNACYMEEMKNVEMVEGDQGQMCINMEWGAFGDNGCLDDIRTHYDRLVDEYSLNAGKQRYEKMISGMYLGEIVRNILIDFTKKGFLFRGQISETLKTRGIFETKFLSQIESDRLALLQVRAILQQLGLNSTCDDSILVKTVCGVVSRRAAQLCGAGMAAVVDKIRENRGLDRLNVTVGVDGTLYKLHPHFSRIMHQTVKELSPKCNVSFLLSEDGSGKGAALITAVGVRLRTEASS
The assay can be described thus: hexokinase 1 activators, dose response, selectivity assay for HKDC1 activator project, biochemical (AID 504762). In kind it is functional.

Assay [8] in a line: Luminescence Cell-Based Dose Response HTS to Identify Inhibitors of 5'UTR Stem-Loop Driven Prion Protein mRNA Translation in H4 Neuroglioblastoma Cells. [Related pubchem assays: 1827 (Project Summary), 1813 (Primary HTS)]. In kind it is functional.
The nature of assay [9]: inhibitors of HIV Env-driven cell fusion, dose response, cherry-pick (AID 652057). In kind it is functional, cell-based.

T2 sequence (Q9UBE0 whole entry): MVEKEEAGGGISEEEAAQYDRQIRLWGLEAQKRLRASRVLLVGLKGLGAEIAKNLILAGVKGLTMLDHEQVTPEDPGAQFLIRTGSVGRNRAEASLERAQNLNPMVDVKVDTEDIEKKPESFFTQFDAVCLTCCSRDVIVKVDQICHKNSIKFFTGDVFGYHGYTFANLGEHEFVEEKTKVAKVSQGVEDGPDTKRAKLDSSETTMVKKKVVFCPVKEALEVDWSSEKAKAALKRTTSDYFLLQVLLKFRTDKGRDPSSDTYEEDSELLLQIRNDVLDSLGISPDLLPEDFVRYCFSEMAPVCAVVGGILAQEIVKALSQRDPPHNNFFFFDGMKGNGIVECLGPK
T2 sequence (Q9UBT2 whole entry): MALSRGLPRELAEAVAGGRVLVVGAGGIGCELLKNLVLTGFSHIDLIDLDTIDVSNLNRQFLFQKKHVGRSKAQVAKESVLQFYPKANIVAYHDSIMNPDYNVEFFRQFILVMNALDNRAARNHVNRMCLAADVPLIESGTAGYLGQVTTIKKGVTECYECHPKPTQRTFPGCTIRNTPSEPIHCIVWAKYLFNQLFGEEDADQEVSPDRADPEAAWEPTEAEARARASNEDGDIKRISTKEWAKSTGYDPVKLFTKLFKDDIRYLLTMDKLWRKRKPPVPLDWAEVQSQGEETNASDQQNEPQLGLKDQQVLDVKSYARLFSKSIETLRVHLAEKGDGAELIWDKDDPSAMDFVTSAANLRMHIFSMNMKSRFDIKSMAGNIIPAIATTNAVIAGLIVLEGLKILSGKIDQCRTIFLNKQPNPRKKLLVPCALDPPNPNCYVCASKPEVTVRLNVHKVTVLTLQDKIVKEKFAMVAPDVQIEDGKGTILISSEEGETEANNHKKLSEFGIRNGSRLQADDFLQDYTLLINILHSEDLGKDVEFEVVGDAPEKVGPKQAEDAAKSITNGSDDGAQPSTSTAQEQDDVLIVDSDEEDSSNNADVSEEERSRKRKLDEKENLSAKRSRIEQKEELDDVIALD
Sequence of Platelet-derived growth factor receptor beta (P09619 whole entry): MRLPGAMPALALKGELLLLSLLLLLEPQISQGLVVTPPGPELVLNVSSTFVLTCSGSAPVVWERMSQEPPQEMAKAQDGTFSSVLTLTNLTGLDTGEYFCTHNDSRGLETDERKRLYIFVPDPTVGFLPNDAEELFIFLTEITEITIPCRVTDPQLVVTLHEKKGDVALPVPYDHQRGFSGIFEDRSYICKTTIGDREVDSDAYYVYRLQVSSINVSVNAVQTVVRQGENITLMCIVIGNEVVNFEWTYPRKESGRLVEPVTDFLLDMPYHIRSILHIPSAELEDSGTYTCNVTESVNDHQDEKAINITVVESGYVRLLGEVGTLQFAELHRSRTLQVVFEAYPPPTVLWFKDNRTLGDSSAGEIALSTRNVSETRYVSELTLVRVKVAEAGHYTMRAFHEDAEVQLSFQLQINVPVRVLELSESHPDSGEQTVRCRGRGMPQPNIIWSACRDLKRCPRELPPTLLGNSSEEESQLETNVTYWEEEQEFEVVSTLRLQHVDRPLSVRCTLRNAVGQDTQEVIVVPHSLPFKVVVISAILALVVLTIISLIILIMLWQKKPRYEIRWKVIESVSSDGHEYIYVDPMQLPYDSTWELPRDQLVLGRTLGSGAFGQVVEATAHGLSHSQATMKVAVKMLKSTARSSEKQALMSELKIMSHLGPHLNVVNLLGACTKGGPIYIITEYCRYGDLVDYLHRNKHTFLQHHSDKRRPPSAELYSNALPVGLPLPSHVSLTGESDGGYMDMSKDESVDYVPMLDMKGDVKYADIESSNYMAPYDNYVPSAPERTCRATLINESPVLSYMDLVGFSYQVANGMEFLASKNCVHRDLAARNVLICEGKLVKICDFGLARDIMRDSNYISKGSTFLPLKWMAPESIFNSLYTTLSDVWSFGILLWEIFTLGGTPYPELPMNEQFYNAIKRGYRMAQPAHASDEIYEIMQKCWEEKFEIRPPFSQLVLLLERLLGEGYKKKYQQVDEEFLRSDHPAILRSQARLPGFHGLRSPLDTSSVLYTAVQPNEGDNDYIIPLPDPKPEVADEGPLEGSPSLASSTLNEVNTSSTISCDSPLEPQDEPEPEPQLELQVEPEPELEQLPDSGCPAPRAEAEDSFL
Sequence of Serine/threonine-protein kinase 17A (Q9UEE5 whole entry): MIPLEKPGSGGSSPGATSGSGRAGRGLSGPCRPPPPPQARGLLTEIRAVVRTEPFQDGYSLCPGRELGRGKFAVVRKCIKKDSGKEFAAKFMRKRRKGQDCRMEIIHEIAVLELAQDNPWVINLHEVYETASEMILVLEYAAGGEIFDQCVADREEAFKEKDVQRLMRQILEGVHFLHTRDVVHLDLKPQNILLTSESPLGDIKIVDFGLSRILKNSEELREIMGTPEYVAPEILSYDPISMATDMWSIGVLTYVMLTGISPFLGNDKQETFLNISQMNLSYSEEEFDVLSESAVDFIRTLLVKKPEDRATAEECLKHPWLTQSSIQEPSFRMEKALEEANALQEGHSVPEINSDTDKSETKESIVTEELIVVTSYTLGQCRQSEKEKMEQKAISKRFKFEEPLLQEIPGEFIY
Sequence of Hepatocyte growth factor receptor (P08581 whole entry): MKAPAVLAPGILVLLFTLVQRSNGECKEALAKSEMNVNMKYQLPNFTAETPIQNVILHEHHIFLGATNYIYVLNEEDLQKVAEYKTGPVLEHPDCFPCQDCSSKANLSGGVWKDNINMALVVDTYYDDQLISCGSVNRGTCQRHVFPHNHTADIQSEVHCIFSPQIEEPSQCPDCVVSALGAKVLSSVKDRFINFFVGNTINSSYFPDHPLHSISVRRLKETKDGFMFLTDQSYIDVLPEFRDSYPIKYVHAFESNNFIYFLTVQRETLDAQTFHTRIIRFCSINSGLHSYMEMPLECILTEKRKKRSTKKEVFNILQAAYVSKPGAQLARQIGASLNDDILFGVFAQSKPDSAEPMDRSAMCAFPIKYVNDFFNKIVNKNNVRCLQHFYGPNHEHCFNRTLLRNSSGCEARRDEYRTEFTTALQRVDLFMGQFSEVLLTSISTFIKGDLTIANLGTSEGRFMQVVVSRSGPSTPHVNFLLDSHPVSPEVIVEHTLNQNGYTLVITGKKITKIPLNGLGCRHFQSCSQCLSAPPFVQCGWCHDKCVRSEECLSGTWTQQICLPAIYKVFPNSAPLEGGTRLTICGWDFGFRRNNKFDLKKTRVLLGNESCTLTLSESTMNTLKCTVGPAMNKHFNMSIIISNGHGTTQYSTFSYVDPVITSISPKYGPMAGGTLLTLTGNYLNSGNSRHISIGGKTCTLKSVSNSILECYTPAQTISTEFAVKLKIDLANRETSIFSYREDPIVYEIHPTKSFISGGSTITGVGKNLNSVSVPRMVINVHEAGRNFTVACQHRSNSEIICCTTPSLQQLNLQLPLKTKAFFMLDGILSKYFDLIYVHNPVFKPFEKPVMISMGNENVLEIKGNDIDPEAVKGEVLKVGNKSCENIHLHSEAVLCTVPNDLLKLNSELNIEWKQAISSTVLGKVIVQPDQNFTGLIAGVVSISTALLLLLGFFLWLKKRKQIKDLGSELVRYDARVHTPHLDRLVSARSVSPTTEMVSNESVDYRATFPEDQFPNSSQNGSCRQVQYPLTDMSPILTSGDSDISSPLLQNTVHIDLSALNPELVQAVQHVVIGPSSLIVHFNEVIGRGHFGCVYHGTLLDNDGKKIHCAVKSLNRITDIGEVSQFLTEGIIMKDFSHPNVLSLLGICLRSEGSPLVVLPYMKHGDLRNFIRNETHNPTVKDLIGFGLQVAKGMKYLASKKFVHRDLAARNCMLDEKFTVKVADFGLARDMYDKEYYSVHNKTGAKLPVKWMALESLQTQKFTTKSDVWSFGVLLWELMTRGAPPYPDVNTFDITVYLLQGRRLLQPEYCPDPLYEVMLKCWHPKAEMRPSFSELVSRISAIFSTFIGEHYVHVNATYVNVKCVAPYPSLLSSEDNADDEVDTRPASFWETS
Sequence of Cyclin-dependent kinase 5 (Q00535 whole entry): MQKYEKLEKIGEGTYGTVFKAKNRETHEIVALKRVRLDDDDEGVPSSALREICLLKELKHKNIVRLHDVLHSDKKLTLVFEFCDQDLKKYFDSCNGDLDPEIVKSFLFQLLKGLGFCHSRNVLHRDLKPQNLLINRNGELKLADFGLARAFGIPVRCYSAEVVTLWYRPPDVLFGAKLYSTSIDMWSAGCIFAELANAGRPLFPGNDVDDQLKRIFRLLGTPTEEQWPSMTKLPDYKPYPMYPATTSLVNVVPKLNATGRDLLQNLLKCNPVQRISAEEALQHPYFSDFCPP

For `CNC[C@H](Cc1ccccc1)NC[C@@H](Cc1cccc2ccccc12)NCCc1ccc(C)cc1`, the EC50 on Insulin-degrading enzyme was > 54.7 µM (inactive).

Take `O=C(Cc1ccccc1Cl)NC1(O)C(=O)c2ccccc2C1=O`: the half-inhibitory concentration (IC50) on SUMO-activating enzyme [1] is 26 µM (active); on SUMO-activating enzyme [2], 5.64 µM (active).

For `Nc1c(-c2ccc(NC(=O)Nc3cccc(C(F)(F)F)c3)cc2)cnc2c(-c3ccc4c(c3)OCO4)cnn12`, the Ki was 7.94 nM (active) in [3], > 2.51 µM (inactive) in assay [4] and > 3.16 µM (inactive) in [5].

As to `O=C(Nc1cc(-c2c[nH]c3ncccc23)cc(Cl)n1)c1ccccc1`, the Ki in [6] is > 3.16 µM (inactive); in assay [7], 1.58 µM (active).

Consider `CCN1C(=Cc2sc3ccccc3[n+]2C)C=Cc2cccc(C)c21`, for which the EC50 was > 80 µM (inactive) at Hexokinase-1 and 6.43 µM (active) in [8]. In assay [9], the AC50 was 1.86 µM (active).

The term EC50 denotes the concentration giving half of the maximal effect. The term IC50 denotes the concentration needed to halve the response being measured. The Ki is a dissociation constant, usually derived from enzyme kinetics or from competition with a known ligand. As a reminder, the AC50 is the midpoint of the concentration-response curve, whichever way the signal moves.
